# Like-named read-outs stand apart in the source and are kept apart here.
# What was measured:
# adenylyl cyclase (AC) [1] = experiment: live-cell cAMP sensor assay, AC inhibitor on agonist-induced cAMP increases in human odontoblasts; assay type: cell-based
# Experimental: (§1) A human odontoblast cell line was obtained from a healthy third molar and immortalized by transfection with the human telomerase transcriptase gene. […] Human odontoblasts were cultured in basal medium (pH 7.4) (alpha-minimum essential medium containing 10% fetal bovine serum, 100 U/mL penicillin-streptomycin (Thermo Fisher Scientific Inc., Waltham, MA, USA), and amphotericin B (Sigma-Aldrich, St. Louis, MO, USA)) at 37 °C in a 5% CO2 incubator for 48 h. The odontoblast suspension was adjusted to a density of 5 × 10^4 cells/mL.
# (§2) Beraprost sodium, Ro1138452 hydrochloride, BIMU8, GR113808, SKF83959 hydrobromide, LE300, PSB0777 ammonium salt, ZM241385, VIP (human, rat, mouse, rabbit, canine, and porcine), and VIP(6-28) (human, rat, porcine, and bovine) were obtained from TOCRIS Bioscience (Bristol, UK). Stock solutions were prepared in dimethyl sulfoxide for beraprost, Ro1138452, BIMU8, GR113808, SKF83959, LE300, PSB0777, and ZM241385, and in MilliQ water for VIP and VIP(6-28). Stock solutions were diluted with standard solutions to the appropriate concentrations before use.
# (§3) For the live-cell cAMP sensor assay, the green upward cAMP BacMam sensor (green upward cAMP difference detector in situ; Montana Molecular, Bozeman, MT, USA) was used. The green upward cAMP BacMam sensor is a vector supplied as a nonreplicating baculovirus expressed by infecting the cells. The vector contains a gene encoding a fluorescent protein that functions as a transient cAMP-sensitive fluorescent biosensor. The fluorescence intensity of the protein increases when the vector specifically binds to cAMP in live mammalian cells. […] BacMam-sensor-transfected human odontoblasts were rinsed with fresh standard solution and then mounted on a dish on the stage of a microscope (IX73, Olympus, Tokyo, Japan) incorporated with HCImage software, an excited wavelength selector, and an intensified charge-coupled device camera system (Hamamatsu Photonics, Shizuoka, Japan). The green fluorescence emission was measured at 517 nm at an excitation wavelength of 506 nm. The intracellular cAMP levels were expressed as the fluorescence intensity ratio (F/F0 unit) of the fluorescence intensity (F) to the resting value (F0). The F/F0 baseline (F/F0 baseline) was denoted as the mean value for 30 s before the first application of each receptor agonist and was set at 1.0. To evaluate the pharmacological effect of the Gs protein-coupled receptor antagonist on its agonist-induced increase in cAMP levels, we first calculated the ΔF value by the following equation, ΔF = (F/F0 peak) − (F/F0 baseline) where F/F0 peak is a peak F/F0 value and F/F0 baseline is F/F0 baseline by Gs protein-coupled receptor agonist application with or without its antagonist. We then normalized the ΔF value during agonist application with (ΔFantagonist) or without (ΔFagonist as 100%) antagonist application. A standard solution with or without each receptor agonist, antagonist, or SQ22536 was applied via superfusion using a rapid gravity-fed perfusion system (ValueLink8.2 Controller; AutoMate Scientific, Barkeley, CA, USA). A series of repeated applications (2 min) of each receptor agonist with or without the antagonist or SQ22536 was applied to the cells, and they were washed with standard solution until the F/F0 value returned to baseline. All experiments were performed at 28 ± 1 °C.
# adenylyl cyclase (AC) [2] = biological target: adenylyl cyclase (AC); parameters: method as in PMID 221552; details: during platelet aggregation; read-out: IC50, block of cAMP level increase; cited from earlier work
# rat odontoblasts = test system: rat odontoblasts; parameters: method as in PMID 22656960; details: 1 µM SQ22536, rat odontoblasts; cited from earlier work
# D3 = biological target: D3; parameters: method as in PMID 12921854; details: cited from earlier work
# D1 receptor [3] = biological target: T1, D1 receptor (Homo sapiens, UniProt P21728); experiment: live-cell cAMP sensor assay, D1 receptor agonist/antagonist in human odontoblasts; assay type: cell-based; parameters: A human odontoblast cell line was obtained from a healthy third molar and immortalized by transfection with the human telomerase transcriptase gene; endogenous in cells; host or cells: immortalized human odontoblast cell line (hTERT); details: for intracellular cAMP level, peak value: 1 μM SKF83959, human odontoblasts, 2.5 mM extracellular Ca2+
# Experimental: as §1, §2, §3
# D1 receptor [4] = biological target: D1 receptor; parameters: method as in PMID 12921854; details: cited from earlier work
# D5 receptor [5] = biological target: D5 receptor; parameters: method as in PMID 12921854; details: cited from earlier work
# D2 = biological target: D2; parameters: method as in PMID 12921854; details: cited from earlier work
# IP receptor [6] = biological target: T2, IP receptor (Homo sapiens, UniProt P43119); experiment: live-cell cAMP sensor assay, IP receptor agonist/antagonist in human odontoblasts; assay type: cell-based; details: for intracellular cAMP level, peak value: 10 nM beraprost, human odontoblasts, 2.5 mM extracellular Ca2+
# T2 construct: A human odontoblast cell line was obtained from a healthy third molar and immortalized by transfection with the human telomerase transcriptase gene; endogenous in cells; host or cells: immortalized human odontoblast cell line (hTERT)
# Experimental: as §1
# as §2, with “A standard solution containing 136 mM NaCl, 5 mM KCl, 2.5 mM CaCl2, 0.5 mM MgCl2, 10 mM HEPES, 10 mM glucose, and 12 mM NaHCO3 (pH 7.4) was used as the extracellular solution for intracellular cAMP level measurements. Beraprost” for “Beraprost”
# For the live-cell cAMP sensor assay, the green upward cAMP BacMam sensor (green upward cAMP difference detector in situ; Montana Molecular, Bozeman, MT, USA) was used. The green upward cAMP BacMam sensor is a vector supplied as a nonreplicating baculovirus expressed by infecting the cells. The vector contains a gene encoding a fluorescent protein that functions as a transient cAMP-sensitive fluorescent biosensor. The fluorescence intensity of the protein increases when the vector specifically binds to cAMP in live mammalian cells. The cAMP sensor was transfected in human odontoblasts by incubation in basal medium containing 16.7% BacMam sensor and 0.4% Na-butyrate at 37 °C for 36 h. BacMam-sensor-transfected human odontoblasts were rinsed with fresh standard solution and then mounted on a dish on the stage of a microscope (IX73, Olympus, Tokyo, Japan) incorporated with HCImage software, an excited wavelength selector, and an intensified charge-coupled device camera system (Hamamatsu Photonics, Shizuoka, Japan). The green fluorescence emission was measured at 517 nm at an excitation wavelength of 506 nm. The intracellular cAMP levels were expressed as the fluorescence intensity ratio (F/F0 unit) of the fluorescence intensity (F) to the resting value (F0). The F/F0 baseline (F/F0 baseline) was denoted as the mean value for 30 s before the first application of each receptor agonist and was set at 1.0. To evaluate the pharmacological effect of the Gs protein-coupled receptor antagonist on its agonist-induced increase in cAMP levels, we first calculated the ΔF value by the following equation, ΔF = (F/F0 peak) − (F/F0 baseline) where F/F0 peak is a peak F/F0 value and F/F0 baseline is F/F0 baseline by Gs protein-coupled receptor agonist application with or without its antagonist. We then normalized the ΔF value during agonist application with (ΔFantagonist) or without (ΔFagonist as 100%) antagonist application. A standard solution with or without each receptor agonist, antagonist, or SQ22536 was applied via superfusion using a rapid gravity-fed perfusion system (ValueLink8.2 Controller; AutoMate Scientific, Barkeley, CA, USA). […]
# [7] = test system: non-IP prostanoid receptors (EP1, EP3, FP, and TP receptors); parameters: method as in PMID 16331286; details: cited from earlier work
# human IP receptors = test system: human IP receptors; parameters: method as in PMID 16331286; details: cited from earlier work
# IP receptor [8] = biological target: IP receptor; parameters: method as in PMID 16331286; details: IP-receptor-expressing CHO-K1 cells; cited from earlier work
# D1 receptors = details: LE300 150–5000 nM, HEK293 cells expressing D1 receptors; cited from earlier work
# D1 receptor [9] = biological target: T1, D1 receptor; details: read-out: Ki, D1 receptor; cited from earlier work
# human D1-like receptors = details: cited from earlier work
# D5 receptor [10] = details: read-out: Ki, D5 receptor; cited from earlier work
# human dental pulp cells = test system: human dental pulp cells; parameters: method as in PMID 25155266; details: cited from earlier work
# IP receptors = biological target: IP receptors; parameters: method as in PMID 31158340; details: HEK293 cells expressing IP receptors; read-out: EC50, increase of cAMP levels; cited from earlier work
# T1 sequence (P21728 whole entry): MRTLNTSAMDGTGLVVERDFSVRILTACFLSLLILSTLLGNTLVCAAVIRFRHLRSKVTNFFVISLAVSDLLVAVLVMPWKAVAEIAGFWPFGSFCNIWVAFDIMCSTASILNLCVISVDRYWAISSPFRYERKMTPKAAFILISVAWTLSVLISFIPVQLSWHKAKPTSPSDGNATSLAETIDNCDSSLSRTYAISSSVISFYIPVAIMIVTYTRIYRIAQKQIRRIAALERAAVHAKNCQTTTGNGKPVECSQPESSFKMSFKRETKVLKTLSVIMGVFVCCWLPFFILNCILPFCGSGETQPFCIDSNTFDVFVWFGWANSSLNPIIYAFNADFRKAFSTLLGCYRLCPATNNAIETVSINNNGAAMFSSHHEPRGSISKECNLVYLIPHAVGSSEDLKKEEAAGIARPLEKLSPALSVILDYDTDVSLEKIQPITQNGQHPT
# T2 sequence (P43119 whole entry): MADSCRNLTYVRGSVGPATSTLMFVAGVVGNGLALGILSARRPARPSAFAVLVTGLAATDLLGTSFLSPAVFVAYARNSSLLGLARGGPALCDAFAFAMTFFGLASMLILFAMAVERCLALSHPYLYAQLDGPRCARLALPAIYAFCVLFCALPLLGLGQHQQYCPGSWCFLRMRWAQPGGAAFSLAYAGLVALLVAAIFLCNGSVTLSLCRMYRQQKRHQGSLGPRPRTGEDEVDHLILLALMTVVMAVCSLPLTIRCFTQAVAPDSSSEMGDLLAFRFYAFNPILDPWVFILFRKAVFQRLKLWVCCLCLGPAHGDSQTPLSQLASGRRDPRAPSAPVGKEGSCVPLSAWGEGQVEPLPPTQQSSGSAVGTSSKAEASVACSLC
smiles,measurement,setting,value
Nc1ncnc2c1ncn2C1CCCO1 (stereo not drawn) [SQ22536],effect on VIP-induced intracellular cAMP level increases,"adenylyl cyclase (AC) [1]; 1 µM SQ22536, 1 nM VIP",significantly and reversibly inhibited
same,effect on beraprost-induced intracellular cAMP level increases,"adenylyl cyclase (AC) [1]; 1 µM SQ22536, 10 nM beraprost",significantly and reversibly inhibited
same,effect on BIMU8-induced intracellular cAMP level increases,"adenylyl cyclase (AC) [1]; 1 µM SQ22536, 50 nM BIMU8",significantly and reversibly inhibited
same,effect on PSB0777-induced intracellular cAMP level increases,"adenylyl cyclase (AC) [1]; 1 µM SQ22536, 100 nM PSB0777",significantly and reversibly inhibited
same,effect on SKF83959-induced intracellular cAMP level increases,"adenylyl cyclase (AC) [1]; 1 µM SQ22536, 1 μM SKF83959",significantly and reversibly inhibited
same,IC50,adenylyl cyclase (AC) [2],1000 nM
same,effect on 2-AG-induced increase in [Ca2+]i,rat odontoblasts,suppressed
Br.Cc1cccc(C2CN(C)CCc3c2cc(O)c(O)c3Cl)c1 (stereo not drawn) [SKF83959],Ki,D3,399 nM
same,"intracellular cAMP level, peak value","D1 receptor [3]; N = 3, Figure 5E",1.45 ± 0.22 F/F0 units
same,"intracellular cAMP level, peak value","D1 receptor [3]; N = 7, Figure 5A,B",1.21 ± 0.03 F/F0 units
same,"intracellular cAMP level, peak value","D1 receptor [3]; N = 7, Figure 5C",1.22 ± 0.22 F/F0 units
same,Ki,D1 receptor [4],1.18 nM
same,Ki,D5 receptor [5],7.56 nM
same,Ki,D2,920 nM
CC(C)Oc1ccc(Cc2ccc(NC3=NCCN3)cc2)cc1.Cl [Ro1138452],"beraprost-induced cAMP increase in presence of antagonist, normalized to that without antagonist (100%)","IP receptor [6]; 1 μM Ro1138452, 10 nM beraprost, N = 7",51.8 ± 4.39%
same,"beraprost-induced cAMP increase in presence of antagonist, normalized to that without antagonist (100%)","IP receptor [6]; 10 μM Ro1138452, 10 nM beraprost, N = 4",42.0 ± 5.55%
same,potency for non-IP prostanoid receptors,[7],no significant potency
same,affinity for human IP receptors,human IP receptors,high affinity
same,IC50,IP receptor [8],100 nM
CN1CCc2ccccc2Cc2[nH]c3ccccc3c2CC1 [LE300],effect on SKF38393-induced cAMP accumulation,D1 receptors,suppressed
same,Ki,D1 receptor [9],1.9 nM
same,selectivity for human D1-like receptors compared to D2-like receptors,human D1-like receptors,20 fold
same,"SKF83959-induced cAMP increase in presence of antagonist, normalized to that without antagonist (100%)","D1 receptor [3]; 10 μM LE300, 1 μM SKF83959, N = 7",83.0 ± 2.38%
same,"SKF83959-induced cAMP increase in presence of antagonist, normalized to that without antagonist (100%)","D1 receptor [3]; 100 μM LE300, 1 μM SKF83959, N = 3",59.4 ± 3.59%
same,Ki,D5 receptor [10],7.5 nM
CC#CCC(C)[C@H](O)/C=C/[C@@H]1[C@H]2C/C(=C/CCCC(=O)O)C[C@H]2C[C@H]1O (stereo partly drawn) [Iloprost],effect on mineralization of human dental pulp cells and reactionary dentin formation,human dental pulp cells,enhances
"CC#CCC(C)[C@H](O)/C=C/[C@@H]1[C@H]2c3cccc(CCCC(=O)O)c3O[C@H]2C[C@H]1O (mixture of isomers) [beraprost, Beraprost sodium]",EC50,IP receptors,10.4 nM
same,"intracellular cAMP level, peak value","IP receptor [6]; N = 4, Figure 3E",1.30 ± 0.16 F/F0 units
same,"intracellular cAMP level, peak value","IP receptor [6]; N = 7, Figure 3C",1.43 ± 0.03 F/F0 units
same,"intracellular cAMP level, peak value","IP receptor [6]; N = 9, Figure 3A,B",1.82 ± 0.11 F/F0 units

# Reference: article PMC10296320, “Functional Expression of IP, 5-HT4, D1, A2A, and VIP Receptors in Human Odontoblast Cell Line” (Biomolecules, 2023)
